According to the supplement of paper PMC10307832:

Experiments:
Assay in all cases: relative viability (nuclei count vs DMSO), 5 days (fraction); higher = more cells survive
[1] = compound: CNC(=O)c1ccccc1Sc1ccc2c(/C=C/c3ccccn3)n[nH]c2c1 [Axitinib] + CC1(C)CCC(c2ccc(Cl)cc2)=C(CN2CCN(c3ccc(C(=O)NS(=O)(=O)c4ccc(N[C@H](CCN5CCOCC5)CSc5ccccc5)c(S(=O)(=O)C(F)(F)F)c4)cc3)CC2)C1 [Navitoclax] (partner 0.5 µM)
Procedure, shortened: (§1)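 Cells from lung cancer lines were seeded into 1536-well plates and, one day later, dosed by pin tool. Treatments were either a single drug or a fixed dose of an anchor drug with five library-drug doses (not always all listed) in √10 steps. After 5 days, nuclei were stained in a one-step fixation (final 0.05% Triton X-100, 1% formaldehyde, 1 ug/ml Hoechst) and counted on 4× images, and relative viability is the treated-to-vehicle nuclei ratio, as the median of duplicate plates.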

[2] = compound: Nc1nc(Nc2ccc3c(c2)CC[C@@H](N2CCCC2)CC3)nn1-c1cc2c(nn1)-c1ccccc1CCC2 [Bemcentinib] + CC(=O)c1c(C)c2cnc(Nc3ccc(N4CCNCC4)cn3)nc2n(C2CCCC2)c1=O [Palbociclib] (partner 0.5 µM)
Procedure, shortened: as §1

[3] = compound: Nc1nc(Nc2ccc3c(c2)CC[C@@H](N2CCCC2)CC3)nn1-c1cc2c(nn1)-c1ccccc1CCC2 [Bemcentinib] + CCNC(=O)c1noc(-c2cc(C(C)C)c(O)cc2O)c1-c1ccc(CN2CCOCC2)cc1 [Luminespib] (partner 0.01 µM)
Procedure, shortened: as §1

[4] = compound: Nc1nc(Nc2ccc3c(c2)CC[C@@H](N2CCCC2)CC3)nn1-c1cc2c(nn1)-c1ccccc1CCC2 [Bemcentinib] + CS(=O)(=O)CCNCc1ccc(-c2ccc3ncnc(Nc4ccc(OCc5cccc(F)c5)c(Cl)c4)c3c2)o1 [Lapatinib] (partner 2 µM)
Procedure, shortened: as §1

Cell Line	relative viability ([1]; first compound 0.005 µM)	relative viability ([1]; first compound 0.01581 µM)	relative viability ([1]; first compound 0.05 µM)	relative viability ([1]; first compound 0.1581 µM)	relative viability ([1]; first compound 0.5 µM)	relative viability ([2]; first compound 0.04 µM)	relative viability ([2]; first compound 0.1265 µM)	relative viability ([2]; first compound 0.4 µM)	relative viability ([2]; first compound 1.265 µM)	relative viability ([2]; first compound 4 µM)	relative viability ([3]; first compound 0.04 µM)	relative viability ([3]; first compound 0.1265 µM)	relative viability ([3]; first compound 0.4 µM)	relative viability ([3]; first compound 1.265 µM)	relative viability ([3]; first compound 4 µM)	relative viability ([4]; first compound 0.04 µM)	relative viability ([4]; first compound 0.1265 µM)	relative viability ([4]; first compound 1.265 µM)	relative viability ([4]; first compound 4 µM)	relative viability ([4]; first compound 0.4 µM)
HOP-62	1.07	1.06	1.02	1.06	1.12	0.46	0.501	0.485	0.474	0.463	0.863	0.875	0.844	1.02	1	1.17	0.977	1.05	0.959	
LC-2-ad	0.572	0.576	0.532	0.506	0.573	0.557	0.49	0.524	0.565	0.516	0.997	1.11	1.03	0.935	0.905	0.921	1.09	0.943	0.995	0.979
LCLC-97TM1	0.485	0.506	0.475	0.489	0.534	0.253	0.283	0.231	0.261	0.264	0.684	0.793	0.726	0.866	0.986	0.777	1.11	1.12	0.941	
LK-2	1.1	0.84	0.657	0.659	0.644	0.78	0.75	0.934	0.728	0.665	0.218	0.167	0.151	0.172	0.182	0.869	0.908	0.838	0.891	1.07
LOU-NH91	0.744	0.467	0.66	0.645	0.802	0.521	0.564	0.525	0.513	0.537	0.293	0.414	0.354	0.303	0.324	0.714	0.79	0.742	0.756	0.789
LU99A	0.858	0.805	0.83	0.773	0.902	0.367	0.37	0.422	0.401	0.413	0.19	0.289	0.234	0.346	0.24	0.961	1.26	0.961	0.893	1.15
LXF-289	0.952	0.944	0.944	0.945	0.928	0.633	0.629	0.581	0.558	0.622	0.74	0.78	0.703	0.653	0.665	0.887	0.908	0.972	0.924	0.988
NCI-H23	0.907	0.947	0.856	0.87	0.893	0.443	0.472	0.558	0.457	0.519	0.197	0.233	0.192	0.224	0.214	0.966	1.28	1.19	1.1	1.32
NCI-H322M	1.18	1.14	1.07	1.08	1.07	0.49	0.481	0.483	0.537	0.557	0.828	0.943	0.835	0.817	0.804	0.576	0.635	0.645	0.611	0.574
NCI-H460	1.12	0.964	1.17	0.984	1.18	0.241	0.147	0.221	0.301	0.199	0.0301	0.0417	0.0326	0.0332	0.0269	0.931	1.46	1.14	1.12	1.3
NCI-H520	0.987	1.26	1.1	0.794	1.11	0.235	0.198	0.265	0.221	0.352	0.248	0.191	0.252	0.23	0.303	0.855	0.943	0.768	1.05	1.08
NCI-H647	1.21	1.12	1.03	1.2	1.28	0.43	0.445	0.387	0.315	0.462	0.142	0.157	0.108	0.143	0.136	1.2	1.25	0.978	1.22	1.1
NCI-H727	0.582	0.466	0.454	0.451	0.61	0.625	0.663	0.637	0.696	0.667	0.352	0.383	0.268	0.29	0.303	0.713	0.875	0.864	1.01	0.877
NCI-H838	1.2	1.18	1.21	1.15	1.3	0.226	0.249	0.221	0.205	0.243	0.256	0.278	0.357	0.282	0.262	1.06	1.16	0.967	1.26	0.914
NCI-H1355	0.992	0.921	0.948	1.01	0.991	0.396	0.403	0.419	0.415	0.437	0.771	0.823	0.737	0.673	0.758	0.908	1.1	1.13	1.07	1.04
NCI-H1395	1.14	1.21	1.02	1.01	1.57		0.621	0.645	0.64	0.631	0.611	0.733	0.808	0.686	1	0.95	1.19	1.06	0.897	0.999

Cell Line	relative viability ([1]; first compound 0.005 µM)	relative viability ([1]; first compound 0.01581 µM)	relative viability ([1]; first compound 0.05 µM)	relative viability ([1]; first compound 0.1581 µM)	relative viability ([1]; first compound 0.5 µM)	relative viability ([2]; first compound 0.04 µM)	relative viability ([2]; first compound 0.1265 µM)	relative viability ([2]; first compound 0.4 µM)	relative viability ([2]; first compound 1.265 µM)	relative viability ([2]; first compound 4 µM)	relative viability ([3]; first compound 0.04 µM)	relative viability ([3]; first compound 0.1265 µM)	relative viability ([3]; first compound 0.4 µM)	relative viability ([3]; first compound 1.265 µM)	relative viability ([3]; first compound 4 µM)	relative viability ([4]; first compound 0.04 µM)	relative viability ([4]; first compound 0.1265 µM)	relative viability ([4]; first compound 1.265 µM)	relative viability ([4]; first compound 4 µM)	relative viability ([4]; first compound 0.4 µM)
NCI-H1437	1.14	1.07	1.13	1.11	1.09	0.322	0.373	0.298	0.226	0.324	1.12	1.24	1.15	1.07	1.11	0.798	0.764	0.771	0.882	0.854
NCI-H1650	1.27	0.981	1.35	1.24	1.41	0.324	0.366	0.307	0.354	0.373	0.207	0.237	0.199	0.236	0.186	0.7	0.817	0.921	0.79	0.74
NCI-H1651	1.07	0.984	1.06	1.1	1.15	0.528	0.542	0.528	0.576	0.512	0.967	0.757	1.05	0.79	0.977	0.836	0.979	0.815	0.822	1.1
NCI-H1666	0.975	0.91	1.01	0.914	1.18	0.656	0.645	0.675	0.683	0.672	1.05	1.07	0.993	0.956	0.955	0.668	0.813	0.649	0.606	0.599
NCI-H1734	0.903	0.839	0.843	0.861	0.971	0.345	0.32	0.349	0.345	0.345	0.178	0.192	0.219	0.218	0.188	1.11	1.08	1.03	1.04	1.12
NCI-H1755	1.04	0.92	0.99	0.964	1	0.43	0.462	0.425	0.479	0.439	0.742	0.52	0.617	0.34	0.418	1.11	1.23	0.996	1.01	1.01
NCI-H1792	0.637	0.527	0.62	0.562	0.366	0.711	0.714	0.675	0.721	0.664	0.578	0.482	0.64	0.489	0.486	0.899	0.855	0.969	0.896	1.11
NCI-H1793	0.438	0.386	0.424	0.514	0.504	0.331	0.369	0.306	0.26	0.322	0.211	0.179	0.169		0.18	0.488	0.621	0.582	0.75	0.693
NCI-H1915	0.802	0.778	0.77	0.753	0.812	0.532	0.506	0.521	0.512	0.527	0.861	0.974	0.9	0.899	0.89	0.958	1.07	1.09	1.05	0.979
NCI-H1944	1.07	0.995	1.01	1.02	1.06	0.324	0.379	0.304	0.327	0.329	0.735	0.836	0.791	0.705	0.758	0.794	0.909	0.883	0.887	0.817
NCI-H1975	1.24	1.07	1.14	1.19	1.17	0.561	0.827	0.665	0.567	0.746	0.162	0.216	0.249	0.187	0.204	0.962	1.02	0.79	0.853	0.894
NCI-H1993	1.13	0.937	1.07	1.03	1.1	0.62	0.723	0.718	0.651	0.708	0.905	0.768	0.999	1.13	0.899	0.695	0.757	0.8	0.885	0.847
NCI-H2009	1.19	1.19	1.17	1.18	1.23	0.185	0.21	0.225	0.239	0.261	1.07	1.04	1.13	0.997	1.03	0.93	1.09	0.954	0.957	0.956
NCI-H2023	1.05	1.01	0.874	0.94	1.01	0.416	0.398	0.388	0.437	0.425	0.839	0.695	1.02	0.864	0.657	0.739	0.866	0.808	0.874	0.868
NCI-H2085	1.09	1.28	1.26	1.03	1.18	0.456	0.449	0.44	0.46	0.47	0.447	0.448	0.435	0.471	0.449	0.625	0.805	0.74	0.721	0.756
